Measurements as given in patent publication US7244712B2, “Aminoglycoside antibiotics and methods of using same” (priority 2004, dated 2007).
Entries after “also recorded” stand apart in the source; their conditions may differ.

How the values were obtained:
70S ribosome = assay: Fluorescence anisotropy binding to 70S ribosomes; details: competition with CRP, E. coli ribosomes; read-out: Dissociation constant (KD) with 70S ribosome
Procedure: After establishing the lack of stereospecificity in the binding of aminoglycosides to the A-site RNA constructs (FIG. 9A-C) where the binding affinity, KD, is about 0.1 μM to about 100 μM, the stereospecificity of aminoglycoside binding to intact ribosomes was determined. Both yeast and E. coli ribosomes were prepared and aminoglycoside binding was measured using fluorescence anisotropy methods. For example, fluorescence anisotropy methods recited in Wang, Y., and Rando, R. R. Chem. Biol. (1995) 2, 281-290; and Wang, Y., Hamasaki, K., and Rando, R. R. Biochemistry (1997) 36,768-779. CRP was used as the binding probe. […] Binding data reported herein for aminoglycoside compounds with eukaryotic yeast ribosomes are similar to binding data for said aminoglycoside compounds with ribosoimes in bacteria and with eukaryotic A-site rRNA constructs.
5-Carboxytetramethylrhodamine-labeled paromomycin (CRP) and tobramycin (CRT) concentrations were determined spectroscopically at 550 nm using a molar extinction coefficient of 6.00×10 4 M −1 cm −1. Fluorescence anisotropy measurements were performed on a Perkin-Elmer LS-50B luminescence spectrometer equipped with a thermostat accurate to ±0.1° C. as indicated previously (Wang, Y., Hamasaki, K., & Rando, R. R. (1997) Biochemistry 36, 768-779). The tracer solution was excited at 550 nm and monitored at 580 nm. The integration time was 5 s. For every point, 6 measurements were taken, and their average values were used for calculation. Measurements were carried out in a buffer solution containing 150 mM NaCl, 5 mM KCl, 1 mM CaCl2, 1 mM MgCl2, and 20 mM HEPES (pH 7.5). Prior to measurements, RNA constructs were renatured by incubating in binding buffer {150 mM NaCl, 5 mM KCl, 1 mM CaCl2, 1 mM MgCl2, and 20 mM HEPES (pH 7.5)} for 3 minutes at 90° C. followed by slow cooling to 25° C.
Equation 1 was used for the determination of the dissociation constant (Kd) for the interactions between RNA or ribosome and CRP. A=A0+DA{(RNA)0+(CRP)0+Kd−({(RNA)0+(CRP)0+Kd}^2−4(RNA)0(CRP)0)½}/2 where A and A0 are the fluorescence anisotropy of CRP in the presence and absence of RNA, respectively, and DA is the difference between the fluorescence anisotropy of CRP in the presence of an extrapolated infinite concentration of RNA minus the fluorescence anisotropy in the absence of RNA. (RNA)0 and (CRP)0 are the initial concentrations of RNA and CRP, respectively.
Equation 2 is used for the calculation of the KD values in the competition binding assay. (aminoglycoside)0={KD(A−−A)/Kd(A−A0)+1}{(RNA)0−Kd(A−A0)/(A−−A)−(CRP)0(A−A0)/(A−−A)} where KD is the dissociation constant between the RNA and the aminoglycosides; (aminoglycoside)0 is the initial concentration of the aminoglycosides; AL is anisotropy of completely bound tracer. Both Kd and KD were determined by non-linear curve fitting using the equations described above, and are presented as mean values of three independent measurements.
The purification of E. coli (E600) 70S ribosomes was carried out according to the published procedure (Lazaro, E., van den Broek, L. A. G. M., Felix, A. S., Ottenheijm, H. C. J., Ballesta, J. P. G. (1991) Biochemistry 30, 9642-9648). E. coli MRE600 were grown for 12 h in 6L of LB medium (10 g trypton, 5 g yeast extract, 5 g NaCl per 1 L, pH 7.0) at 37° C. Crude ribosomes were precipitated from clarified supernatant by 4 h centrifugation at 25,000 rpm in Beckman SW 28 rotor at 4° C. The ribosome pellets were collected in 5 mL of buffer BR1, containing 10 mM HEPES, pH 7.5, 500 mM ammonium acetate, 100 mM magnesium chloride and 2.5 mM DTT. The ribosome suspension was centrifuged for 20 min at 15000 rpm to be clarified. The clarified sample was loaded over two layers of 20% and 40% sucrose in buffer BR1 and centrifuged for 18 hr at 19000 rpm in Beckman SW28 rotor at 4° C. […]

E. coli (ATCC 25922) [1] = assay: Bactericidal activity (bactericide index); assay type: cell-based; details: 3 h incubation, FIG. 8
Procedure: The bactericidal activity of each antibiotic was investigated at concentrations of 0.5-4×MIC in medium E. coli (ATCC 25922) inoculum was added to 0.5 mL medium 2 to OD 600 ˜0.1 together with different antibiotic concentrations. The samples were incubated at 37° C. for 3 hrs, and the bacteria were collected by centrifugation. The bacterial pellets were washed with 0.5 mL of medium 2 and were plated on 1.5% medium 2 agar in 100 mm Petri dishes. The plates were incubated for 1-2 days at 37° C. and mean log 10 change in viable count was calculated and plotted vs drug concentration.

E. coli (ATCC 25922) [2] = assay: Antibiotic activity disk assay, wild type E. coli; assay type: cell-based; details: FIG. 7A
Procedure: (§1) E. coli (ATCC 25922) and P. aeruginosa (ATCC 27853) (BD Bioscience) were inoculated in 3 mL of the medium 2 (U.S. Pharmacopia), containing 6 g peptone, 3 g yeast extract and 1.5 g beef extract per 1 L, pH 6.6, and were grown in a shaker for 6 h at 37° C. until an OD 560=0.6-0.8 was reached.
(§2) For the antibiotic disk assay, […] of each bacterial inoculum was mixed with 10 mL of melted agar (1.5% medium 2 agar, BD Bioscience) at 50-55° C. and poured onto 100 mm Petri dishes. Sterile Whatmann 3 MM 5 mm paper disks were soaked with antibiotic solutions and allowed to dry. The disks were positioned evenly on the surface of bacterial-inoculated solid agar and the plates were incubated at 37° C. for 1-2 days. MIC and bactericide index measurements.

[3] = test system: E. coli (ATCC 25922) transformed with the plasmid pMM, bearing the APH(3')IIa gene; assay: Antibiotic activity disk assay, kanamycin/neomycin resistant E. coli; assay type: cell-based; details: FIG. 7B
Procedure: as §1, §2

NCC1OC(OC2C(N)CC(N)C(O)C2O)C(N)C(O)C1O [L-Neamine]
Kd (70S ribosome): 2690 ± 460 nM
Concentration at which bactericidal effect begins (E. coli (ATCC 25922) [1]): 600 µM
Antibiotic activity in disk assay, WT E. coli (E. coli (ATCC 25922) [2]): somewhat lower activity
Antibiotic activity in disk assay, kanamycin/neomycin resistant E. coli [3]: maintained antibiotic activity; also recorded: maintaines substantially the same level of activity
